In patent US20230150924A1, “NOVEL COMPOUND HAVING CANCER METASTASIS INHIBITORY ACTIVITY, PREPARATION METHOD THEREFOR, AND PHARMACEUTICAL COMPOSITION FOR INHIBITING CANCER METASTASIS AND INVASION OR TREATING COLORECTAL CANCER, COMPRISING COMPOUND” (CELLGENTEK CO., LTD., priority 2019, published 2023):
Where two headings read alike, the source gives them in different places.

Experiments:
[1] = tested on: KAI1 promoter; assay: KAI1 promoter luciferase reporter assay in transfected Caco2 cells; format: cell-based, human; settings: Homo sapiens, Caco-2, 16 h, read-out: Relative KAI promoter activity
Method: Experiments were conducted to evaluate the metastasis-related promoter activity-increasing effects of the compounds according to the present invention. Specifically, the KAI1 promoter reporter vector was used. In this case, the pRL-TK vector, a vector expressing renilla luciferase, was used as an internal control indicating the transfection efficiency in each transfected well.
First, 24 hours before transfection, 2×10^6 human colon cancer cell line, Caco2) cells were cultured in 10 ml of DMEM containing 10% FBS and 1% penicillin/streptomycin on a 100-mm-diameter plate, and then transformed with 5 μg of a pRL-TK vector mixture containing a transfection reagent and the KAI1 promoter, and then cultured in a 5% CO2 incubator at 37° C. for 48 hours. Thereafter, the adherent cells were detached using trypsin and counted using a hemacytometer, and then 5×10^3 transfected Caco2 cells in 100 μl of DMEM containing 10% FBS and 1% penicillin/streptomycin were seeded into each well of a 96-well plate and cultured in a 5% CO2 incubator at 37° C. for 24 hours. Next, 1 μM of each of the 305 compounds prepared in Examples 1 to 305 was added to each well, and after 16 hours, 100 μl of a lysis buffer for analysis containing a luciferase substrate was added, and the cells were lysed with stirring for 20 minutes. After completion of lysis, the cells were measured for luciferase activity using a luciferase reporter assay system (Promega, USA). […] In addition, data were analyzed at a significance level of p<0.05 by one-way ANOVA (Tukey's HSD), and SPSS 17.0 (Chicago, USA) statistical program was used. In Table 14 to 20, PHA is the PHA-665752, and KIT is KITENIN.

[2] = tested on: invasion of colorectal cancer cells; assay: In vivo relative invation (invasion; EV and KITENIN controls, no method described); settings: relative to EV (=1); KIT = KITENIN
[3] = 1 μM compound, 16 hours, transfected Caco2 cells, luciferase activity relative to DMSO control (=1)

Row | SMILES | fold induction at 1 µM [1, 3] | In vivo relative invation [2] | fold induction at 1 µM [1]
1 | C=CCN(CC=C)Cc1ccccc1C(=O)NCC(=O)c1ccccc1 [Example 303, 2-((diallylamino)methyl)-N-(2-oxo-2-phenylethyl)benzamide] | 1.85 | 1.138 | 
2 | CC(C)(C)C(=O)NCC(=O)c1ccc(Cl)cc1 [Example 66, N-(2-(4-chlorophenyl)-2-oxoethyl)pivalamide] | 0.87 | 1.168 | 
3 | O=C(CNC(=O)C1CCC1)c1ccccc1 [Example 17, N-(2-oxo-2-phenylethyl)cyclobutanecarboxamide] | 0.98 | 0.9288 | 
4 | Cc1ccccc1C(=O)N1CCC(Oc2ccccc2C(=O)NCC(=O)c2ccccc2)CC1 [Example 161, 2-((1-(2-methylbenzoyl)piperidin-4-yl)oxy)-N-(2-oxo-2-phenylethyl)benzamide] | 0.95 | 1.121 | 
5 | COc1ccc(C(=O)NCC(=O)c2ccc(N(C)C)cc2)cc1 [Example 97, N-(2-(4-(dimethylamino)phenyl)-2-oxoethyl)-4-methoxybenzamide] | 1.8 | 1.024 | 
6 | O=C(CNC(=O)c1cccc(CN2CCN(c3ncccn3)CC2)c1)c1ccccc1 [Example 235, N-(2-oxo-2-phenylethyl)-3-((4-(pyrimidin-2-yl)piperazin-1-yl)methyl)benzamide] | 1.44 | 1.133 | 
7 | CCCCC(=O)NCC(=O)c1ccc(N(C)C)cc1 [Example 103, N-(2-(4-(dimethylamino)phenyl)-2-oxoethyl)pentanamide] | 1.7 | 1.172 | 
8 | C=CC(=O)N1CCC(Oc2ccccc2C(=O)NCC(=O)c2ccccc2)CC1 [Example 160, 2-((1-acryloylpiperidin-4-yl)oxy)-N-(2-oxo-2-phenylethyl)benz amide] | 1.05 | 1.067 | 
9 | C=CCN(CC=C)Cc1ccc(C(=O)NCC(=O)c2ccccc2)cc1 [Example 265, 4-((diallylamino)methyl)-N-(2-oxo-2-phenylethyl)benzamide] | 1.91 | 1.343 | 
10 | CN(C)c1ccc(C(=O)CNC(=O)c2ccc(F)cc2F)cc1 [Example 105, N-(2-(4-(dimethylamino)phenyl)-2-oxoethyl)-2,4ifluorobenzamide] | 1.25 | 1.079 | 
11 | COc1ccc(NC(=O)COc2ccccc2C(=O)NCC(=O)c2ccccc2)cc1F [Example 207, 2-(2-((3-fluoro-4-methoxyphenyl)amino)-2-oxoethoxy)-N-(2-oxo-2-phenylethyl)benzamide] | 1.43 | 1.036 | 
12 | O=C(CNC(=O)c1ccccc1OC(F)(F)F)c1ccc(Cl)cc1 [Example 84, N-(2-(4-chlorophenyl)-2-oxoethyl)-2-(trifluoromethoxy)benzamide] | 0.94 | 1.181 | 
13 | CN(C)Cc1ccccc1C(=O)NCC(=O)c1ccccc1 [Example 296, 2-((dimethylamino)methyl)-N-(2-oxo-2-phenylethyl)benzamide] | 1.53 | 1.026 | 
14 | O=C(CNC(=O)c1cccc(Cl)c1Cl)c1ccc(Cl)cc1 [Example 80, 2,3-dichloro-N-(2-(4-chlorophenyl)-2-oxoethyl)benzamide] | 0.86 | 1.183 | 
15 | COc1cccc(NC(=O)COc2ccccc2C(=O)NCC(=O)c2ccccc2)c1 [Example 209, 2-(2-((3-methoxyphenyl)amino)-2-oxoethoxy)-N-(2-oxo-2-phenylethyl)benzamide] | 1.12 | 1.07 | 
16 | CCCCC(=O)NCC(=O)c1ccc(N2CCOCC2)cc1 [Example 145, N-(2-(4-morpholinophenyl)-2-oxoethyl)pentanamide] | 1.1 | 1.433 | 
17 | CC(C)(C)CC(=O)NCC(=O)c1ccccc1 [Example 19, 3,3-dimethyl-N-(2-oxo-2-phenylethyl) butanamide] | 0.98 | 1.201 | 
18 | COc1ccc(C(=O)NCC(=O)c2ccccc2)cc1 [Example 12, 4-methoxy-N-(2-oxo-2-phenylethyl)benzamide] | 1.75 | 1.357 | 
19 | CC(C)(C)C(=O)N1CCC(Oc2ccccc2C(=O)NCC(=O)c2ccccc2)CC1 [Example 179, N-(2-oxo-2-phenylethyl)-2-((1-pivaloylpiperidin-4-yl)oxy)benzamide] | 0.97 | 1.081 | 
20 | O=C(CNC(=O)c1ccc(CN2CCN(c3ncccn3)CC2)cc1)c1ccccc1 [Example 258, N-(2-oxo-2-phenylethyl)-4-((4-(pyrimidin-2-yl)piperazin-1-yl)methyl)benzamide] | 2.31 | 1.223 | 
21 | COc1cccc(C(=O)CNC(=O)c2cccc(CN3CCN(c4ccccn4)CC3)c2)c1 [Example 284, N-(2-(3-methoxyphenyl)-2-oxoethyl)-3-((4-(pyridin-2-yl)piperazin-1-yl)methyl)benzamide] | 1.44 | 1.276 | 
22 | O=C(CNC(=O)c1ccccc1C(F)(F)F)c1ccccc1 [Example 30, N-(2-oxo-2-phenylethyl)-2-(trifluoromethyl)benzamide] | 1.41 | 0.7631 | 
23 | O=C(COc1ccccc1C(=O)NCC(=O)c1ccccc1)NC1CCCCC1 [Example 230, 2-(2-(cyclohexylamino)-2-oxoethoxy)-N-(2-oxo-2-phenylethyl)benzamide] | 1.08 | 1.267 | 
24 | CC(C)NC(=O)COc1ccccc1C(=O)NCC(=O)c1ccccc1 [Example 226, 2-(2-(isopropylamino)-2-oxoethoxy)-N-(2-oxo-2-phenylethyl)benzamide] | 1.09 | 1.349 | 
25 | CCN(Cc1cccc(C(=O)NCC(=O)c2ccccc2)c1)c1ccccc1 [Example 239, 3-((ethyl(phenyl)amino)methyl)-N-(2-oxo-2-phenylethyl)benzamide] | 1.08 | 1.135 | 
26 | O=C(CNC(=O)C1CC1)c1ccc(N2CCOCC2)cc1 [Example 143, N-(2-(4-morpholinophenyl)-2-oxoethyl)cyclopropanecarboxamide] | 1.16 | 0.8028 | 
27 | O=C(CNC(=O)c1ccc(F)cc1)c1ccccc1 [Example 4, 4-fluoro-N-(2-oxo-2-phenylethyl)benzamide] |  | 1.084 | 1.88
28 | CCC(=O)NCC(=O)c1ccc(N2CCOCC2)cc1 [Example 142, N-(2-(4-morpholinophenyl)-2-oxoethyl)propionamide] | 1.12 | 1.8 | 
29 | O=C(CNS(=O)(=O)c1ccc(Cl)cc1)c1ccc(N2CCOCC2)cc1 [Example 147, 4-chloro-N-(2-(4-morpholinophenyl)-2-oxoethyl)benzenesulfonamide] | 1.1 | 0.9524 | 
30 | O=C(CNS(=O)(=O)c1ccc(Cl)cc1)c1ccc(Cl)cc1 [Example 69, 4-chloro-N-(2-(4-chlorophenyl)-2-oxoethyl)benzenesulfonamide] | 0.84 | 1.095 | 
